Measured values as given in article PMC12040169 (PLOS Biology, 2025).

Experiment: in vitro
Conditions: human, hela cells, % viability

Row | Structure (SMILES) | viability at 28.5 h, 10 µM [%]
1 | CCCc1cc(C(=O)OC)c(NC(=O)C2CC=CCC2C(=O)O)s1 (stereo not drawn) [CBK265397] | 117
2 | Cc1nn(C)cc1CN(C)S(=O)(=O)c1cccc([N+](=O)[O-])c1 [CBK265399] | 79.9
3 | CCOc1ccccc1N1C(=O)CC(Sc2nc(-c3ccccc3)c3cc(Cl)ccc3n2)C1=O (stereo not drawn) [CBK265405] | 116
4 | COc1ccc(N2C(=O)c3ccccc3NC2c2cccc(OCC(=O)Nc3ccccc3)c2)cc1 (stereo not drawn) [CBK265406] | 108
5 | CCOC(=O)CN1C(=O)S/C(=C/c2cc(C)n(-c3ccc(S(N)(=O)=O)cc3)c2C)C1=O [CBK265410] | 94
6 | CCOC(=O)c1cc(C)sc1NC(=O)CCC(=O)O [CBK265412] | 108
7 | COc1ccc(N2CCN(c3nc(NCCO)nc(N4CCOCC4)n3)CC2)cc1 [CBK265413] | 99.3
8 | O=C(Nc1nc2nccc(-c3ccccc3)n2n1)c1cccc([N+](=O)[O-])c1 [CBK265414] | 87.6
9 | Cc1cc(N2C(=O)c3ccc(C(=O)O)cc3C2=O)ccc1NC(=O)c1cccs1 [CBK265415] | 92.8
10 | CCOC(=O)c1cc(C(C)C)sc1NC(=O)C1C2C=CC(C2)C1C(=O)O (stereo not drawn) [CBK265417] | 95.4
11 | COC(=O)c1ccc(C(=O)OC)c(NC(=O)C2CCCCC2C(=O)O)c1 (stereo not drawn) [CBK265422] | 88
12 | Cc1ccc(NC(=O)/C=C/c2ccc3c(c2)OCO3)c(NC(=O)/C=C/c2ccc3c(c2)OCO3)c1 [CBK265423] | 114
13 | CC(=O)Nc1cccc(OCC(=O)Nc2ccc(C)c(C)c2)c1 [CBK265429] | 95.9
14 | CCc1c(C)sc(NC(=O)C2C3C=CC(C3)C2C(=O)O)c1C(N)=O (stereo not drawn) [CBK265433] | 97.9
15 | COC(=O)c1sccc1NC(=O)c1ccncc1 [CBK265438] | 85.4
16 | O=C(COc1ccc2ccccc2c1)NCCN1CCOCC1 [CBK265444] | 107
17 | O=C(/C=C/c1ccc2c(c1)OCO2)Nc1ccc(S(=O)(=O)Nc2cnc3ccccc3n2)cc1 [CBK265445] | 86.9
18 | O=C(/C=C/c1c(F)cccc1Cl)Nc1nnn[nH]1 [CBK265447] | 102
19 | Cc1oc(CC(C)C)c(CN2CCCCC2)c1C(=O)O [CBK265448C] | 113
20 | CC(Oc1cccc(Cl)c1)C(=O)Nc1ncccn1 (stereo not drawn) [CBK265450] | 90.2
21 | CC1=C(C)CC(C(=O)NC(C)CCc2ccccc2)C(C(=O)O)C1 (stereo not drawn) [CBK265452] | 99.9
22 | O=C(O)C1C2C=CC(C2)C1C(=O)NCc1ccco1 (stereo not drawn) [CBK265453] | 92.7
23 | O=C(Nc1nc2ccccc2[nH]1)C1c2ccccc2Oc2ccccc21 [CBK265454] | 98.9
24 | O=C(CSc1nnc2sc3ccccc3n12)N1c2ccccc2Sc2ccccc21 [CBK265457] | 89
25 | Cc1ccc(-c2cc(C(=O)O)[nH]n2)cc1 [CBK265462] | 101
26 | Cc1onc(-c2ccccc2Cl)c1C(=O)Nc1ccc(S(=O)(=O)N2CCC(C)CC2)cc1 [CBK265463] | 107
27 | COc1cc(C)c(S(=O)(=O)n2c(C)nc3ccccc32)cc1C [CBK265464] | 94

Row | Structure (SMILES) | viability at 28.5 h, 10 µM [%]
28 | O=C(/C=C/c1ccc(Cl)cc1)Nc1nnn[nH]1 [CBK265468] | 81.8
29 | O=S(=O)(NCc1ccc(CNS(=O)(=O)c2ccccc2)cc1)c1ccccc1 [CBK265471] | 113
30 | c1ccc(CN2CCN(CCN3CCn4c3nc3ccccc34)CC2)cc1 [CBK265472B] | 97.5
31 | O=C(O)C1C2C=CC(O2)C1C(=O)Nc1ccc2c(c1)OCO2 (stereo not drawn) [CBK265475] | 88.6
32 | O=C(O)C1CCCCC1C(=O)N1CCN(C(c2ccccc2)c2ccccc2)CC1 (stereo not drawn) [CBK265480] | 90.7
33 | S=C(Nc1ccccc1)Nc1nc2ccccc2n1CCOc1ccccc1 [CBK265487] | 113
34 | CC(=O)Nc1ccc(S(=O)(=O)NCCCc2ccccc2)cc1 [CBK265488] | 89.8
35 | O=C(COC(=O)c1ccccc1NC(=O)c1ccccc1)c1ccc2ccccc2c1 [CBK265491] | 94.9
36 | Cc1ccc(OCCOCCN(C)C)c(Cl)c1 [CBK265493G] | 111
37 | Cc1nc(-c2ccc(S(=O)(=O)N3CCC(Cc4ccccc4)CC3)cc2)cs1 [CBK265494] | 108
38 | Cc1ccc(C)c(C(=O)C2=C(O)C(=O)N(CCN(C)C)C2c2cccc(Cl)c2)c1 (stereo not drawn) [CBK265495] | 91.4
39 | O=C1NC(=S)S/C1=C\c1cn(-c2ccccc2)nc1-c1ccc(OCc2ccccc2)cc1 [CBK265496] | 79.4
40 | O=C(/C=C/c1ccc(Cl)cc1Cl)Nc1sc2c(c1C(=O)NCc1cccnc1)CCCC2 [CBK265497] | 99.3
41 | O=C(Nc1sc2c(c1C(=O)NCc1cccnc1)CCCC2)c1ccc(Cl)cc1 [CBK265498] | 88.2
42 | Cc1cccc(C)c1OCC(=O)Nc1cccc(Oc2ccc3c(c2)C(=O)N(c2ccccc2)C3=O)c1 [CBK265499] | 100
43 | O=C(O)c1cc2oc3ccccc3c3ccccc3oc2cc1C(=O)Nc1cccc([N+](=O)[O-])c1 [CBK265500] | 99.1
44 | O=S(=O)(c1ccc(-c2csc(-c3cccnc3)n2)cc1)N1CCCCCC1 [CBK265502] | 106
45 | Cc1ccc(C)c(C(=O)C2=C(O)C(=O)N(CCCN3CCOCC3)C2c2cccc([N+](=O)[O-])c2)c1 (stereo not drawn) [CBK265503] | 86.2
46 | CC(Oc1ccc(F)cc1)C(=O)Nc1ccc(S(N)(=O)=O)cc1 (stereo not drawn) [CBK265506] | 92.3
47 | Cc1cccc(OCC(=O)NCCCc2ccccc2)c1C [CBK265507] | 99.9
48 | CCOc1cc(/C=C2\SC(=S)N(Cc3ccccc3)C2=O)cc(Cl)c1OC(=O)c1ccco1 [CBK265509] | 106
49 | CCOc1cc(/C=C2\SC(=N)NC2=O)ccc1OC(=O)c1cccs1 [CBK265510] | 107
50 | O=[N+]([O-])c1ccccc1OCCNCc1ccccc1 [CBK265511G] | 101
51 | Cc1ccc(C(=O)C(OC(=O)COc2ccccc2C)c2ccccc2)cc1C (stereo not drawn) [CBK265512] | 85.3
52 | O=C(O)c1ccc(NC(=O)c2ccccc2NC(=O)c2cccc(Br)c2)cc1 [CBK265517] | 102
53 | O=C(Nc1ccc(C(=O)OCC(=O)c2cccc3ccccc23)cc1)c1ccccc1 [CBK265518] | 115
54 | Cc1ccc(C(=O)C(OC(=O)CN2C(=O)c3cccc([N+](=O)[O-])c3C2=O)c2ccccc2)cc1C (stereo not drawn) [CBK265519] | 109

Row | Structure (SMILES) | viability at 28.5 h, 10 µM [%]
55 | O=C(Cc1ccccc1[N+](=O)[O-])NCCCN1CCOCC1 [CBK265520] | 92
56 | COc1ccccc1Cc1noc(COc2cccc(C)c2C)n1 [CBK265521] | 99.9
57 | O=C(O)c1cccc(NC(=O)c2ccc3c(c2)C(=O)N(Cc2cccnc2)C3=O)c1 [CBK265523] | 88.5
58 | O=C(COC(=O)c1cc(O)nc2ccccc12)c1ccccc1Cl [CBK265524] | 95.2
59 | O=C(OCC(=O)c1cccc2ccccc12)c1cc2ccccc2cc1O [CBK265526] | 102
60 | O=C(NCN1CCN(c2ccccc2F)CC1)c1cccnc1 [CBK265530] | 90
61 | COc1ccccc1N1C(=O)CC(N2CCC(C(N)=O)(N3CCCCC3)CC2)C1=O (stereo not drawn) [CBK265533] | 84.3
62 | C(=C\c1ccccc1)/Cn1c(COc2ccccc2)nc2ccccc21 [CBK265535] | 91.6
63 | O=C1N(CN2CCN(C(c3ccccc3)c3ccccc3)CC2)c2ccccc2C12OCCO2 [CBK265537] | 87.1
64 | Nc1nc(CSCCO)nc(Nc2ccc(F)cc2)n1 [CBK265542] | 98.3
65 | Cc1ccc(C(=O)CCC(=O)CCC(=O)O)cc1 [CBK265546] | 95.6
66 | Cc1cccc(C)c1NC(=O)c1c(NC(=O)c2ccco2)sc2c1CCC(C)C2 (stereo not drawn) [CBK265550] | 107
67 | COc1ccc(-c2c(-c3ccc(O)cc3O)n[nH]c2C)cc1OC [CBK265552] | 81.7
68 | O=C(c1ccc(F)cc1)c1ccc(CSc2nnc3sc4ccccc4n23)cc1 [CBK265553] | 85.9
69 | NS(=O)(=O)c1ccc(NC(=O)CSc2nc3sc4c(c3c(=O)[nH]2)CCC4)cc1 [CBK265554] | 103
70 | NC(=O)C1CCN(C2CC(=O)N(c3cccc([N+](=O)[O-])c3)C2=O)CC1 (stereo not drawn) [CBK265555] | 105
71 | O=C(O)c1ccc2c(c1)C(=O)N(Cc1cccc(CN3C(=O)c4ccc(C(=O)O)cc4C3=O)c1)C2=O [CBK265556] | 113
72 | CCCS(=O)(=O)N1CCN(CCN2C(=O)c3cccc4cccc(c34)C2=O)CC1 [CBK265559] | 81
73 | CC(CC(=O)O)CC(=O)Nc1ccc(C(=O)O)cc1 (stereo not drawn) [CBK265560] | 103
74 | COc1ccc(Br)cc1/C=C/C(=O)NC(=S)Nc1cc(C(=O)O)ccc1Cl [CBK265564] | 90.7
75 | O=C(CCN1C(=O)c2ccccc2C1=O)N(CCO)Cc1ccccc1 [CBK265565] | 110
76 | O=C(CSCc1nc(O)c2c3c(sc2n1)CCCC3)Nc1ccc(F)cc1 [CBK265568] | 106
77 | CC(C)n1c(NCc2nc3ccccc3n2C)nc2ccccc21 [CBK265571] | 83.6
78 | O=C(CN1CCCCC1)Nc1ccc(S(=O)(=O)N2CCOCC2)cc1 [CBK265577] | 90.2
79 | O=C(CN1C(=O)c2ccccc2C1=O)Nc1sc2c(c1C(=O)NCC1CCCO1)CCC2 (stereo not drawn) [CBK265583] | 109

Same assay, conditions: human, hela cells, % viability, bulk resorufin, single well

Row | Structure (SMILES) | viability at 28.5 h, 10 µM [%]
80 | CCOc1cc(C=C2C(=O)NC(=S)NC2=O)cc(Br)c1OCC(=O)O [CBK265411] | 98.4
81 | O=C(COc1ccc(/C=C2\C(=O)NC(=O)N(c3ccc(O)cc3)C2=O)cc1Cl)Nc1ccccc1 [CBK265425] | 84.4
82 | O=C(O)COc1ccc(/C=C2\C(=O)NC(=O)N(c3ccc(OCc4ccccc4)cc3)C2=O)cc1 [CBK265449] | 83.6
83 | COC(=O)c1ccc(N2C(=O)NC(=O)/C(=C\c3ccccc3OCC(=O)O)C2=O)cc1 [CBK265459] | 84.7
84 | O=C1C(=CNCCc2c[nH]c3ccccc23)C(=O)N(c2ccccc2)C(=S)N1c1ccccc1 [CBK265557] | 98.5
